Data: article PMC12743403, “Green-synthesized silver nanoparticles from Camellia sinensis: mechanistic insights into phenolic-mediated multifunctional biological activities” (BMC Plant Biology, 2025)

Tested on: T1, urease
T1 construct: gene jack bean urease
Settings: 100 mM urea, room temperature, 10 min; reference inhibitor

NC(N)=S [Thiourea]
Urease IC50: 24.5 ± 0.7 µg/mL
